From patent US20110098283A1, “3-CINNOLINECARBOXAMIDE DERIVATIVES AND THEIR USE FOR TREATING CANCER” (ASTRAZENECA AB, priority 2007, published 2011)

Target: T1, CSF-1R (His-tagged kinase domain, amino acids 568-912) (Homo sapiens, UniProt P07333)
T1 construct: The His-tagged kinase domain of CSF-1R (i.e., amino acids 568-912, GeneBank ID NM_005211); His; made in house; host or cells: baculovirus infected SF+Express insect cells
T1 sequence (P07333 568-912): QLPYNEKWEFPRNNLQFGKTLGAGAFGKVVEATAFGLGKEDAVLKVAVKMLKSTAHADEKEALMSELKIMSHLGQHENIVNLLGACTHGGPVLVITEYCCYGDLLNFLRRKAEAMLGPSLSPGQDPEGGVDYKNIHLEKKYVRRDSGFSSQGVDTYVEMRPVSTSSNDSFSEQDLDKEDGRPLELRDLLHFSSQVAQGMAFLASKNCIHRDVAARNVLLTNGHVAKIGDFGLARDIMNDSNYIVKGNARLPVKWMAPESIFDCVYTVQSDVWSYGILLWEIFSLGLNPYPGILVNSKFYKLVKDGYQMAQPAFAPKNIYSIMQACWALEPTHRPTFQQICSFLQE
Experiment: Assay 2: CSF1R in-vitro AlphaScreen Assay
Type: biochemical
Details: phosphorylation of pEY substrate; 0.46 nM CSF-1R, 12 mM ATP in mix
Protocol: Assay 2: CSF1R in-vitro AlphaScreen Assay
Activity of purified CSF-1R was determined in-vitro using an Amplified Luminescent Proximity Homogeneous Assay (ALPHA) (Perkin Elmer, Mass.), which measures phosphorylation of CSF-1R substrate, biotinylated poly-glutamine-tyrosine peptide (pEY-HTRF CisBio 61GT0BLD), as described below. The His-tagged kinase domain of CSF-1R (i e, amino acids 568-912, GeneBank ID NM_005211) was purified from baculovirus infected SF+Express insect cells (1.4×10^6 cells/ml), French pressed and chromatographed through subsequent QIAgen Ni-NTA, Superflow Mono Q HR 10/10, and Superdex 200 SEC columns.
The phosphorylation of the CSF-1R substrate in the presence and absence of the compound of interest was determined. Briefly, 5 ul of Enzyme/Substrate/adenosine triphosphate (ATP) mix consisting of 0.46 nM of purified CSF-1R, 12 nM pEY substrate, and 12 mM ATP in 1.2× buffer was preincubated with 2 ul of compound for 20 minutes at 25° C. Reactions were initiated with 5 ul of Metal mix consisting of 24 mM MgCl2 in 1.2× buffer and incubated at 25° C. for 90 minutes and reactions were stopped by addition of 5 ul of Detection mix consisting of 20 mM HEPES, 102 mM ethylenediamine tetraacetic acid, 1.65 mg/ml BSA, 136 mM NaCl, 40 ug/ml Streptavidin donor beads (Perkin Elmer, Mass., Catalog #6760002), and 40 ug/ml phosphotyrosine-specific antibody coated acceptor beads (Perkin Elmer, Mass., Catalog #6760620). Plates were incubated at 25° C. for 18 hours in the dark. Phosphorylated substrate was detected by an EnVision plate reader (Perkin Elmer) 680 nm excitation, 520-620 nm emission. Data was graphed and IC50s calculated using Excel Fit (Microsoft).

Row | Structure (SMILES) | IC50 [nM]
1 | COc1cc2nnc(C(N)=O)c(Nc3ccc(F)cc3F)c2cc1N1C[C@@H](C)N[C@@H](C)C1 [Example 44, 4-[(2,4-Difluorophenyl)amino]-6-[(3R,5S)-3,5-dimethylpiperazin-1-yl]-7-methoxycinnoline-3-carboxamide] | 16
2 | CCOc1cc2nnc(C(N)=O)c(Nc3ccc(C)cc3F)c2cc1N1CCN(CCO)CC1 [Example 43, 7-Ethoxy-4-[(2-fluoro-4-methylphenyl)amino]-6-[4-(2-hydroxyethyl)piperazin-1-yl]cinnoline-3-carboxamide] | 3
3 | COc1cc2nnc(C(N)=O)c(Nc3ccc(C)cc3F)c2cc1C1=CCN(CCO)CC1 [Example 34, 4-[(2-Fluoro-4-methylphenyl)amino]-6-[1-(2-hydroxyethyl)-1,2,3,6-tetrahydropyridin-4-yl]-7-methoxycinnoline-3-carboxamide] | 5
4 | COc1cc2nnc(C(N)=O)c(Nc3ccc(C)cc3F)c2cc1C1=CCN(C(C)C)CC1 [Example 29, 4-[(2-Fluoro-4-methylphenyl)amino]-6-(1-isopropyl-1,2,3,6-tetrahydropyridin-4-yl)-7-methoxycinnoline-3-carboxamide] | 7

Continued, values first:

Row | IC50 [nM] | Structure (SMILES)
5 | 7 | COc1cc2nnc(C(N)=O)c(Nc3ccc(C)cc3F)c2cc1N1CCN(CC(F)(F)F)CC1 [Example 42, 4-[(2-Fluoro-4-methylphenyl)amino]-7-methoxy-6-[4-(2,2,2-trifluoroethyl)piperazin-1-yl]cinnoline-3-carboxamide]
6 | 12 | COc1cc2nnc(C(N)=O)c(Nc3ccc(C)cc3F)c2cc1N1CCN2CCCC2C1 (centres unmarked) [Example 33, 4-[(2-Fluoro-4-methylphenyl)amino]-6-(hexahydropyrrolo[1,2-a]pyrazin-2(1H)-yl)-7-methoxycinnoline-3-carboxamide]
7 | 71 | COc1cc2nnc(C(N)=O)c(Nc3ccc(C)cc3F)c2cc1N1C[C@@H](C)O[C@@H](C)C1 [Example 37, 6-[(2R,6S)-2,6-Dimethylmorpholin-4-yl]-4-[(2-fluoro-4-methylphenyl)amino]-7-methoxycinnoline-3-carboxamide]
8 | 13 | COc1cc2nnc(C(N)=O)c(Nc3ccc(C)cc3F)c2cc1N1CCn2cnnc2C1 [Example 31, 6-(5,6-Dihydro[1,2,4]triazolo[4,3-a]pyrazin-7(8H)-yl)-4-[(2-fluoro-4-methylphenyl)amino]-7-methoxycinnoline-3-carboxamide]
